What follows are compounds tested against T1, KRAS G12C (Homo sapiens, UniProt P01116, G12C) (assay: Inhibitory activity on the KRAS G12C nucleotide (GDP-GTP) exchange reaction). Details: Bodipy FL GDP-bound KRAS G12C 25 nM; preincubation at 25° C. for 4 hours; SOS1 100 nM, GppNHp 1 μM, reaction for 30 minutes.
T1 construct: KRAS G12C (amino acid region: 1-169)
Assay type: biochemical
Experimental: Test Example 2: Evaluation of Inhibitory Activity of Compounds on the KRAS G12C Nucleotide (GDP-GTP) Exchange Reaction
The inhibitory activity of compounds on the exchange reaction of GDP into GppNHp in Bodipy (trademark) FL-bound KRAS G12C was examined by fluorescence measurement using human recombinant KRAS G12C and SOS1 proteins.
For the preparation of KRAS G12C to which Bodipy FL GDP was bound, first, 50 µM KRAS G12C (amino acid region: 1-169) and 1 mM Bodipy FL GDP (Invitrogen, G22360) were incubated for 1 hour in a buffer (20 mM Tris-HCl (pH 7.5), 50 mM NaCl, 1 mM DTT) in ice in the presence of 2.5 mM EDTA. Thereafter, MgCl2 with a final concentration of 10 mM was added, and the mixture was incubated at room temperature for 30 minutes. The protein was allowed to pass through a NAP-5 column to remove free nucleotides and was used for compound evaluation.
For the measurement of the inhibitory activity of compounds on nucleotide exchange reaction, first, the compound of the disclosure was diluted stepwise with dimethyl sulfoxide (DMSO). Subsequently, a solution of the gradually diluted compound of the disclosure in DMSO (the final concentration of DMSO: 5%) and KRAS G12C (25 nM) bound to Bodipy FL GDP were added to a reaction buffer (20 mM Tris-HCl (pH 7.5), 100 mM NaCl, 1 mM MgCl2, 2 mM DTT, 0.1% Tween20), followed by preincubation at 25° C. for 4 hours. Thereafter, Son of Sevenless Homolog 1 (SOS1, amino acid region: 564-1049) and GppNHp (GMPPNP, Jena Bioscience GmbH, NU-401-50) were added such that their final concentration was 100 nM and 1 μM respectively, followed by reaction for 30 minutes. The change in fluorescence intensity of Bodipy FL (excitation wavelength: 485 nm, fluorescence wavelength: 520 nm) immediately after the start of reaction and after 30 minutes from the start of reaction was standardized. The signal value for only DMSO was determined to be 0% inhibition, and the signal value for no addition of GppNHp was determined to be 100% inhibition. The compound concentration at which 50% inhibition is achieved was determined to be the IC50 (nM) and was calculated.

T1 sequence (P01116 1-169 isoform P01116-2 G12C): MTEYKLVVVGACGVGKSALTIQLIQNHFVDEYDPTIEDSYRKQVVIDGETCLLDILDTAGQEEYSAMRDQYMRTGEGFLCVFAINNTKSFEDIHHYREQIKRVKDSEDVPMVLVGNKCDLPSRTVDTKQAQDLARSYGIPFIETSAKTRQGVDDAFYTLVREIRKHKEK

IC50 | SMILES
11 nM | C=CC(=O)N1CC(NC(=O)c2c(Cl)nc(CNc3n[nH]c4cc(Cl)c(C(C)(C)C)cc34)n2[C@@H]2CCN(CCOC)C2)C1 [Example 119, (R)-N-(1-acryloylazetidin-3-yl)-2-(((5-(tert-butyl)-6-chloro-1H-indazol-3-yl)amino)methyl)-4-chloro-1-(1-(2-methoxyethyl)pyrrolidin-3-yl)-1H-imidazole-5-carboxamide]
7 nM | C=CC(=O)N1CC(NC(=O)c2c(Cl)nc(CNc3n[nH]c4cc(Cl)c(C(C)(C)C)cc34)n2CC(C)C)C1 [Example 89, N-(1-acryloylazetidin-3-yl)-2-(((5-(tert-butyl)-6-chloro-1H-indazol-3-yl)amino)methyl)-4-chloro-1-isobutyl-1H-imidazole-5-carboxamide]
129 nM | C=CC(=O)N1CC(NC(=O)c2c(C)c(CNc3n[nH]c4cc(Cl)c(C(C)(C)C)cc34)nn2C)C1 [Example 10, N-(1-acryloylazetidin-3-yl)-3-(((5-(tert-butyl)-6-chloro-1H-indazol-3-yl)amino)methyl)-1,4-dimethyl-1H-pyrazole-5-carboxamide]
9 nM | C=CC(=O)N1CC(NC(=O)c2c(Cl)nc(CNc3n[nH]c4cc(Cl)c(C(C)(C)C)cc34)n2C2CCCN(CC(F)F)C2)C1 (stereo not shown) [Example 117, N-(1-acryloylazetidin-3-yl)-2-(((5-(tert-butyl)-6-chloro-1H-indazol-3-yl)amino)methyl)-4-chloro-1-(1-(2,2-difluoroethyl)piperidin-3-yl)-1H-imidazole-5-carboxamide]
44 nM | C=CC(=O)N1CC(NC(=O)c2c(C(F)F)nc(CNc3n[nH]c4cc(Cl)c(C(C)(C)C)cc34)n2CC2CCCN2C(C)C)C1 (stereo not shown) [Example 95, N-(1-acryloylazetidin-3-yl)-2-(((5-(tert-butyl)-6-chloro-1H-indazol-3-yl)amino)methyl)-4-(difluoromethyl)-1-((1-isopropylpyrrolidine-2-yl)methyl)-1H-imidazole-5-carboxamide]
2630 nM | C/C=C/C(=O)N1CC(NC(=O)c2c(C)nc(CNc3n[nH]c4cc(Cl)c(C(C)(C)C)cc34)n2C(C)C)C1 [Example 81, (E)-N-(1-(but-2-enoyl)azetidin-3-yl)-2-(((5-(tert-butyl)-6-chloro-1H-indazol-3-yl)amino)methyl)-1-isopropyl-4-methyl-1H-imidazole-5-carboxamide]
14 nM | C=CC(=O)N1CC(NC(=O)c2c(Cl)nc(CNc3n[nH]c4cc(Cl)c(C(C)(C)C)cc34)n2CC(F)F)C1 [Example 100, N-(1-acryloylazetidin-3-yl)-2-(((5-(tert-butyl)-6-chloro-1H-indazol-3-yl)amino)methyl)-4-chloro-1-(2,2-difluoroethyl)-1H-imidazole-5-carboxamide]
15 nM | C=CC(=O)N1CC(NC(=O)c2c(C)nc(CNc3n[nH]c4cc(Cl)c(C(C)(C)C)cc34)n2C(C)C)C1 [Example 13, N-(1-acryloylazetidin-3-yl)-2-(((5-(tert-butyl)-6-chloro-1H-indazol-3-yl)amino)methyl)-1-isopropyl-4-methyl-1H-imidazole-5-carboxamide]
6 nM | C=CC(=O)N1CC(NC(=O)c2c(Cl)nc(CNc3n[nH]c4cc(Cl)c(C(C)(C)C)cc34)n2C)C1 [Example 29, N-(1-acryloylazetidin-3-yl)-2-(((5-(tert-butyl)-6-chloro-1H-indazol-3-yl)amino)methyl)-4-chloro-1-methyl-1H-imidazole-5-carboxamide]
9 nM | C=CC(=O)N1CC(NC(=O)c2c(Cl)nc(CNc3n[nH]c4cc(Cl)c(C(C)(C)C)cc34)n2C2CCCOC2)C1 (stereo not shown) [Example 104, N-(1-acryloylazetidin-3-yl)-2-(((5-(tert-butyl)-6-chloro-1H-indazol-3-yl)amino)methyl)-4-chloro-1-(tetrahydro-2H-pyran-3-yl)-1H-imidazole-5-carboxamide]
10 nM | C=CC(=O)N1CC(NC(=O)c2c(C(F)F)nc(CNc3n[nH]c4cc(Cl)c(C(C)(C)C)cc34)n2C2CCN(CC)C2)C1 (stereo not shown) [Example 92, N-(1-acryloylazetidin-3-yl)-2-(((5-(tert-butyl)-6-chloro-1H-indazol-3-yl)amino)methyl)-4-(difluoromethyl)-1-(1-ethylpyrrolidin-3-yl)-1H-imidazole-5-carboxamide]
96 nM | C=CC(=O)N1C[C@H](NC(=O)c2c(C)nc(CNc3n[nH]c4cc(Cl)c(C(C)(C)C)cc34)n2C)[C@@H](O)C1 [Example 62, N-((3S,4S)-1-acryloyl-4-hydroxypyrrolidin-3-yl)-2-(((5-(tert-butyl)-6-chloro-1H-indazol-3-yl)amino)methyl)-1,4-dimethyl-1H-imidazole-5-carboxamide]
23 nM | C=CC(=O)N1CC(NC(=O)c2c(Cl)nc(CNc3n[nH]c4cc(Cl)c(C(C)(C)C)cc34)n2C2CCCCC2)C1 [Example 109, N-(1-acryloylazetidin-3-yl)-2-(((5-(tert-butyl)-6-chloro-1H-indazol-3-yl)amino)methyl)-4-chloro-1-cyclohexyl-1H-imidazole-5-carboxamide]
25 nM | C=CC(=O)N1CC(NC(=O)c2c(C)nc(CNc3n[nH]c4cc(Cl)c(C(C)(C)C)cc34)n2CCN(C)C)C1 [Example 16, N-(1-acryloylazetidin-3-yl)-2-(((5-(tert-butyl)-6-chloro-1H-indazol-3-yl)amino)methyl)-1-(2-(dimethylamino)ethyl)-4-methyl-JH-imidazole-5-carboxamide]
84 nM | C=CC(=O)N1CC(NC(=O)c2c(C)nc(CNc3n[nH]c4cc(Cl)c(C(C)(C)C)cc34)n2Cc2ccccc2)C1 [Example 15, N-(1-acryloylazetidin-3-yl)-1-benzyl-2-(((5-(tert-butyl)-6-chloro-1H-indazol-3-yl)amino)methyl)-4-methyl-JH-imidazole-5-carboxamide]
4 nM | C=CC(=O)N1CC(NC(=O)c2c(Cl)nc(CNc3n[nH]c4cc(Cl)c(C(C)(C)C)cc34)n2[C@H]2CCOC2)C1 [Example 97, (S)-N-(1-acryloylazetidin-3-yl)-2-(((5-(tert-butyl)-6-chloro-1H-indazol-3-yl)amino)methyl)-4-chloro-1-(tetrahydrofuran-3-yl)-1H-imidazole-5-carboxamide]
27 nM | C=CC(=O)N1CC(NC(=O)c2cnc(CNc3n[nH]c4cc(Cl)c(C(C)(C)C)nc34)n2C)C1 [Example 40, N-(1-acryloylazetidin-3-yl)-2-(((5-(tert-butyl)-6-chloro-1H-pyrazolo[4,3-b]pyridin-3-yl)amino)methyl)-1-methyl-1H-imidazole-5-carboxamide]
50 nM | C=CC(=O)N1CC(NC(=O)c2c(C(F)(F)F)nc(CNc3n[nH]c4cc(Cl)c(C(C)(C)C)cc34)n2C(C)C)C1 [Example 32, N-(1-acryloylazetidin-3-yl)-2-(((5-(tert-butyl)-6-chloro-1H-indazol-3-yl)amino)methyl)-1-isopropyl-4-(trifluoromethyl)-1H-imidazole-5-carboxamide]
13 nM | C=CC(=O)N1CC(NC(=O)c2c(Cl)nc(CNc3n[nH]c4cc(Cl)c(C(C)(C)C)cc34)n2[C@@H]2CCN(CC(F)F)[C@H]2C)C1 [Example 125, N-(1-acryloylazetidin-3-yl)-2-(((5-(tert-butyl)-6-chloro-1H-indazol-3-yl)amino)methyl)-4-chloro-1-((2S,3R)-1-(2,2-difluoroethyl)-2-methylpyrrolidin-3-yl)-1H-imidazole-5-carboxamide]
8 nM | C=CC(=O)N1CC(NC(=O)c2c(Cl)nc(CNc3n[nH]c4cc(Cl)c(C(C)(C)C)cc34)n2[C@H]2CCN(C(C)C)C2)C1 [Example 116, (S)-N-(1-acryloylazetidin-3-yl)-2-(((5-(tert-butyl)-6-chloro-1H-indazol-3-yl)amino)methyl)-4-chloro-1-(1-isopropylpyrrolidin-3-yl)-1H-imidazole-5-carboxamide]
63 nM | Cc1nc(CNc2n[nH]c3cc(Cl)c(C(C)(C)C)cc23)n(C)c1C(=O)NC1CN(C(=O)/C=C/CN(C)C)C1 [Example 80, (E)-2-(((5-(tert-butyl)-6-chloro-1H-indazol-3-yl)amino)methyl)-N-(1-(4-(dimethylamino)but-2-enoyl)azetidin-3-yl)-1,4-dimethyl-1H-imidazole-5-carboxamide]
6 nM | C=CC(=O)N1CC(NC(=O)c2c(Cl)nc(CNc3n[nH]c4cc(Cl)c(C(C)(C)C)cc34)n2[C@@H]2CCN(C3CC3)C2)C1 [Example 120, (R)-N-(1-acryloylazetidin-3-yl)-2-(((5-(tert-butyl)-6-chloro-1H-indazol-3-yl)amino)methyl)-4-chloro-1-(1-cyclopropylpyrrolidin-3-yl)-1H-imidazole-5-carboxamide]

Reference: US20230181536A1, “ANTICANCER COMBINATION THERAPY WITH N-(1-ACRYLOYL-AZETIDIN-3-YL)-2-((1H-INDAZOL-3-YL)AMINO)METHYL)-1H-IMIDAZOLE-5-CARBOXAMIDE INHIBITOR OF KRAS-G12C” (TAIHO PHARMACEUTICAL CO., LTD., priority 2020, published 2023)
